Data taken from patent publication US7932261B2, “Macrocycle derivatives useful as inhibitors of β-secretase (BACE)” (Janssen Pharmaceutica NV, priority 2006, dated 2011).

How the values were obtained:
β-secretase (BACE) [1] = molecular target: T1, β-secretase (BACE) (Homo sapiens, UniProt P56817); assay: in vitro BACE FS1 % Inhibition Assay (Example 13); type: biochemical; conditions: FS1 substrate, pH 5; for inhibition at 0.3 µM: read-out: % Inhibition (Example 13) @ 0.3 μM, 0.3 μM compound; for inhibition at 1 µM: read-out: % Inhibition (Example 13) @ 1 μM, 1 μM compound; for inhibition at 3 µM: read-out: % Inhibition (Example 13) @ 3 μM, 3 μM compound
T1 construct: purchased Panvera
Experimental: (§1) The following assay buffers were prepared and used in this assay: (1) enzyme assay buffer (0.05 M sodium acetate, pH5, 0.1% PEG8000 (w/v)), (2) substrate assay buffer (0.05 M sodium acetate, pH5), and (3) compound vehicle (30% DMSO in 50 mM HEPES, pH 7.4).
(§2) The FS1-substrate stock solution was prepared in DMSO as a 10 mg/mL solution. The FS1-substrate working solution was prepared by diluting the 10 mg/mL stock solution with substrate assay buffer to a final concentration of 300 μg/mL. The α-secretase (BACE) working solution was prepared by diluting a 0.83 mg/mL BACE stock solution with enzyme assay buffer to a final concentration of 4 μg/mL.
Test compounds were dissolved in DMSO to 10 mM.
(§3) The screening procedure for this assay was as follows: 15 μL of BACE working solution was pipetted into each well of a 96-well plate. To each well was then pipetted 2 μL of test compound at the selected concentration. Test compound and BACE were then mixed with a pipettor and incubated for 20 min at room temperature. To each well was then added 10 µL of the FS1 substrate working solution. The plates were then incubated for 1 hour at room temperature.
The procedure for the blank (negative control) was as follows. 15 μL of assay buffer was pipetted into each well to be used as a blank control. To each well was then added 2 μL of vehicle and 10 μL of FS1-substrate working solution. The plates were then incubated for 1 hour at room temperature.
(§4) The procedure for the positive control was as follows: 15 μL of BACE working solution was pipetted into each well to be used as a positive control. To each well was then pipetted 2 μL of vehicle. Vehicle and BACE were then mixed with a pipettor and incubated for 20 min at room temperature. To each well was then added 10 μL of the FS1 substrate working solution. The plates were then incubated for 1 hour at room temperature.
For test compounds, % inhibition was determined at each concentration as follows: […]

β-secretase (BACE) [2] = molecular target: T1, β-secretase (BACE); assay: in vitro BACE Assay, Ki (Example 14); type: biochemical
Experimental: as §1
as §2, with “β-secretase” for “α-secretase”
Test compounds were dissolved in DMSO at 10 mM.
as §3, with “The” for “The screening”, “μL” for “µL”, “solution.” for “solution. The plates were then incubated for 1 hour at room temperature.”
as §4, with “solution.” for “solution. The plates were then incubated for 1 hour at room temperature.”
For test compounds, Ki inhibition was determined as follows: For each compound concentration and positive control, rate of cleavage of substrate (Vi, where i=compound concentration in μM) was determined as Δ Fluorescence/Δ time (min). Cleavage rates (Vi) were plotted as a function of inhibitor concentration in μM [I]. The Ki was then determined by fitting the following equation to the graph of [I] vs. Vi Y=aVmax/(50+24*(1+X/Ki)),

T1 sequence (P56817 46-501): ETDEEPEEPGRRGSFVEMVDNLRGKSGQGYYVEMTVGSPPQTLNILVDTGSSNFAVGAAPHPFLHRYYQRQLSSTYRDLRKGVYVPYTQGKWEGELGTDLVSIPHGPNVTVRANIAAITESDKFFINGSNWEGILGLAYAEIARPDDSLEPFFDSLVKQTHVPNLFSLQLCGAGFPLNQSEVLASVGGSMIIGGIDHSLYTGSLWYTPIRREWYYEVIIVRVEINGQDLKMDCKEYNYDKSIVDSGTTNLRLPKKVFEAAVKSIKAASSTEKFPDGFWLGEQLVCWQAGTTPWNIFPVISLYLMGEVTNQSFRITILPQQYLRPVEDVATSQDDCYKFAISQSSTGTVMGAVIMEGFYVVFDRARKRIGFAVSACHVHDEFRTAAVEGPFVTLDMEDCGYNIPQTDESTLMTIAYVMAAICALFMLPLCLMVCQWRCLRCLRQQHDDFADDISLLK

Row | inhibition at 0.3 µM (β-secretase (BACE) [1]) | inhibition at 1 µM (β-secretase (BACE) [1]) | inhibition at 3 µM (β-secretase (BACE) [1]) | Ki (β-secretase (BACE) [2]) | Structure (SMILES)
1 | 139% | 145% | 151% | 7.6 nM | NC1=Nc2cc(F)c3cc2CN1[C@H](C1CCCCC1)CCC(=O)N(C1CCCCC1)CCc1cccc(c1)O3 [Compound 17]
2 | 27% | 43% | 77% | 420 nM | CC(C)[C@@H]1CCC(=O)N([C@H]2CC[C@H](C(=O)O)CC2)CCc2cccc(c2)Oc2ccc3c(c2)CN1C(N)=N3 [Compound 24]
